The record followed here is patent publication US20240174649A1, “CULLIN-RING E3 UBIQUITIN LIGASE 4 INHIBITOR COMPOUNDS AND METHODS OF THEIR USE” (ICAHN SCHOOL OF MEDICINE AT MOUNT SINAI, priority 2021, published 2024).

pEC50, pKd: −log10 of the molar value.

The target in data set [1] is ROC1-CUL1 (Homo sapiens (Human), UniProt Q13616). As to the kind of experiment: Cullin-32P-Ub elongation assay with ROC1-CUL1. Type of data set: biochemical. As to conditions: as much as 150 μM.
Data set [2] relates to ROC1-CUL4A CTD. As to the kind of experiment: Ligand binding by Micro-Scale Thermophoresis (MST). Details: species or system human. The settings on record: ratio of Kd. Here is the method:
(§1) E3 ligase complex (˜2 nmol) was labeled with fluorescent dye using Monolith NT Protein Labeling Kit Red-NHS (Nanotemper) in the presence of 20 mM MES pH 6.0 and 150 mM NaCl. Excess dye was removed using the included gravity flow column and eluted in storage buffer containing 20 mM Tris-HCl, pH 7.4, 150 mM NaCl, and 10% glycerol. The fluorescent E3 complex (˜0.01-0.06 μM) was mixed with increasing amount of compound in a buffer (20 μl) that contains phosphate-buffered saline, 0.1% TWEEN-20 and 2% prionex. Following incubation at room temperature for 30 min, the reaction mixture loaded into premium coated capillaries and analyzed in the Monolith NT.115 machine (Nanotemper). Thermophoresis was recorded for each sample and binding curve was generated and Kd was calculated using the included software. For reactions where significant ligand specific fluorescence quenching occurred (verified by manufacturer's SDS Denaturation-test protocol), the initial fluorescence quenching data was used directly to calculate the binding curve and Kd.

Data set [3] deals with ROC1-CUL4A CTD (Homo sapiens (Human), UniProt Q13619). As to the kind of experiment: Ligand binding by Micro-Scale Thermophoresis (MST). As to conditions: MST. Here is the method:
as §1

Data set [4] concerns the target ROC1-CUL3 (Homo sapiens (Human), UniProt Q13618). Kind of data set: Gel-based di-Ub synthesis. The class given is biochemical. The settings on record: up to 150 μM.
The target of data set [5] is ROC1-CUL2 (Homo sapiens (Human), UniProt Q13617). Kind of data set: Gel-based di-Ub synthesis. The class given is biochemical. As to conditions: up to 150 μM.
Chain of ROC1-CUL2 (Q13617 whole entry): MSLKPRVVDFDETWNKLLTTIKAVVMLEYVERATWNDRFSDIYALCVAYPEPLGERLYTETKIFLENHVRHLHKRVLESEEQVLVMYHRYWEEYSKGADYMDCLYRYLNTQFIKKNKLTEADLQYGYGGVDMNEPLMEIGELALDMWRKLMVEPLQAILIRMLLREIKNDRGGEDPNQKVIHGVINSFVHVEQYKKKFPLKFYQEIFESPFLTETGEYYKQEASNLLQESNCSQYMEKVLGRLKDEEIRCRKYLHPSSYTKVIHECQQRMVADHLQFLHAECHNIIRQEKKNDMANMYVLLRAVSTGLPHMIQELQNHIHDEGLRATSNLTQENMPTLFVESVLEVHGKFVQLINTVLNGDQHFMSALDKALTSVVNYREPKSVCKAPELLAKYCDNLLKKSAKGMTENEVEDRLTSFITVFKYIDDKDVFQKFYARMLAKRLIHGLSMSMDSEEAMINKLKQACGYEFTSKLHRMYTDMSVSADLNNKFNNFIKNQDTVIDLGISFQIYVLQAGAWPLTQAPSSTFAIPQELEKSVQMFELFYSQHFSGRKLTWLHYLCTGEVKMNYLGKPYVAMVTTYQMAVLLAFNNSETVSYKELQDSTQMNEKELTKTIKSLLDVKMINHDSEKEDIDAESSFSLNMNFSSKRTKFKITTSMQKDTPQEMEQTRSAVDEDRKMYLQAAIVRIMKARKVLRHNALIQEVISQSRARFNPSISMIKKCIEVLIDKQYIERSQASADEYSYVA
Chain of ROC1-CUL2 (P62877 whole entry partner): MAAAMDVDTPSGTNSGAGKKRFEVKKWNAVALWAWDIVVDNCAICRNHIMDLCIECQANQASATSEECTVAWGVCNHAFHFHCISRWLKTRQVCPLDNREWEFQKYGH
Data set [6] has as its target ROC1-CUL4A (Homo sapiens (Human), UniProt Q13619). Kind of data set: 32P-Ub chain elongation by ROC1-CUL4A. The class given is biochemical. Details: concentration or dose not given beside the values. The settings on record: relative to KH-4-43. Here is the method: The reaction was incubated for 5 min at 37° C. […] The reaction was incubated for 5 min at room temperature. In the second step (chase), the completed Cdc34b-Ub thiol ester reaction mixture was combined with one third of the completed mono-ubiquitination mixture. The final volume was adjusted to 10 μl with a mix that contained 50 mM Tris-HCl (pH 7.4), 0.5 mM DTT, 0.1 mg/ml of BSA, 5 mM MgCl2, and 2 mM ATP. Compounds were added where indicated. The chase reaction was incubated for 10 min at 37° C. The reaction products were separated by 4-20% SDS-polyacrylamide gel electrophoresis. The reaction scheme was identical to the one described above for FIGS. 12A-B. […] The reaction products, separated by SDS-PAGE, were visualized and analyzed by phospho-imaging using Typhoon 9500 scanner.

A short description of data set [7]: Mouse tolerance/toxicity study.
Data set [8] is described as follows: Kinetic solubility. Type of data set: physicochemical. The settings on record: pH 7.4. How it is done:
(§2) ADME studies on compounds #33-11 and KH-4-43 for “absorption, distribution, metabolism, and excretion” were carried out at CRO, BioDuro. Kinetic solubility, plasma and microsome stability in rat, mouse and human, as well as Caco-2 Permeability were examined.

Data set [9] addresses E3 (CUL4) (Homo sapiens (Human), UniProt Q13619). As to the kind of experiment: E3 (CUL4) inhibition (Table 1). The class given is biochemical. An outline of the steps:
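Two-step assay: Cdc34b-Ub thiol ester formation, then chase with ROC1-cullin mono-ubiquitination mix for 10 min at 37° C in 50 mM Tris-HCl pH 7.4, 0.5 mM DTT, 0.1 mg/ml BSA, 5 mM MgCl2, 2 mM ATP with compounds. 32P-Ub chain products resolved by SDS-PAGE and quantified by phospho-imaging.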

In data set [10] the test system is MV4-11 cells. Kind of data set: Cell viability assay (CellTiter-Glo). Type of data set: cell-based. As to conditions: Homo sapiens; MV4-11, 48 hours. Here is the method: The ability of #33-11 to induce apoptosis was measured by Annexin V flow cytometry (FIG. 1A). EC50/EC90 for each cell line are indicated. […] Mouse pancreatic cancer cell lines K8484 and DT8082 were isolated from the KPC mice (Olive et al., “Inhibition of Hedgehog Signaling Enhances Delivery of Chemotherapy in a Mouse Model of Pancreatic Cancer,” Science 324(5933):1457-1461 (2009), which is hereby incorporated by reference in its entirety), the rest (34 in total) are all human cancer cell lines. Washout: MV4-11 cells at 10^5 cells/ml were treated with compound at concentrations as indicated (FIG. 1C). At specified hours post compound treatment, the cells were washed once with fresh complete media without compound and allowed to grow for additional 48 hours followed by viability test as in FIG. 1B.
(§3) For cell viability assay, 10,000 cells (per well) were seeded in 96 well plates in 100 microliters of media and incubated overnight. Serial dilutions of compounds tested were then added to wells in triplicate. […] The luminescence of each well was then read using a Synergy multi-mode plate reader (BioTek). For determining relative luminescence, the background (average reading of wells containing only media and CellTiter-Glo reagent, no cells) was first subtracted from the reading of each sample. […] Then EC50 was determined using the four parameter logistics regression standard curve.

In data set [11] the test system is tumor cell lines. Kind of data set: Cytotoxicity in a subset of tumor cell lines. Type of data set: cell-based. Here is the method:
Cells (5×10^4) were seeded 24 hours before compound treatment. Compound was added to the culture media and cells were cultured with the compound for 48 hours. The treated cells were then transferred into 5 ml flow cytometry tubes and the well was washed once with PBS to collect any remaining cells. The cells were then pelleted at 500×g for 5 min with a Beckman CS-6KR centrifuge at 4° C. After removal of supernatant, the cells pellet was washed with Annexin V binding buffer (10 mM Hepes-NaOH, pH 7.4, 150 mM NaCl, 5 mM KCl, 1 mM MgCl2, and 1.8 mM CaCl2). Cells were pelleted once again and incubated in the dark with Annexin V-FITC (2 μg/ml) in binding buffer for 5 min then analyzed using LSRFortessa flow cytometer (BD).
as §3, with “triplicate. The cells were incubated for an additional 48 hours.” for “triplicate.”

The target of data set [12] is CRL1/SCF (Homo sapiens, UniProt Q13616).
Data set [13] can be described thus: Liver microsome stability. Type of data set: in vitro ADME. How it is done: as §2
Background: Microsomes from liver hold many membrane-bound enzymes, among them those of drug oxidation.

Chain of ROC1-CUL3 (Q13618 whole entry): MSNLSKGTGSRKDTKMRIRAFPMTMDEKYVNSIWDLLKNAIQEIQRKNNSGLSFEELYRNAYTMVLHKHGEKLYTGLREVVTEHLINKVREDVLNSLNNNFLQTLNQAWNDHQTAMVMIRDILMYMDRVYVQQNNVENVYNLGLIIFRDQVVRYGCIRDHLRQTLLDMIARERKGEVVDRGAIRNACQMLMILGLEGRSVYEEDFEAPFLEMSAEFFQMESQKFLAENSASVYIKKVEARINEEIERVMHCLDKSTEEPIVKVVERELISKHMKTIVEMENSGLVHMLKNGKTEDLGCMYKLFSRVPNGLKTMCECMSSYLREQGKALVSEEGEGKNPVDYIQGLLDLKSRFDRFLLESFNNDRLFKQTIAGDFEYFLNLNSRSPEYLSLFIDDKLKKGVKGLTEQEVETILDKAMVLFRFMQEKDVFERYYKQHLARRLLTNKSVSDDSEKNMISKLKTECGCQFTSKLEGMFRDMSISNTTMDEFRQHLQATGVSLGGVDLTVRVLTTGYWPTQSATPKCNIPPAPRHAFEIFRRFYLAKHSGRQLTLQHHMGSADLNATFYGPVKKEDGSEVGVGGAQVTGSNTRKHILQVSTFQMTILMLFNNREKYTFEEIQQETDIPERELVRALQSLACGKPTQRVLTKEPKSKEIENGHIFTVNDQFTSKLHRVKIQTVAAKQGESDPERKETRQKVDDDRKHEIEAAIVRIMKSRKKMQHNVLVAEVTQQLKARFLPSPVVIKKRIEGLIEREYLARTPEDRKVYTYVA
Chain of ROC1-CUL3 (P62877 whole entry partner): as the sequence (P62877 whole entry partner) above
Chain of ROC1-CUL4A CTD (Homo sapiens (Human), UniProt Q13619) (Q13619 400-759): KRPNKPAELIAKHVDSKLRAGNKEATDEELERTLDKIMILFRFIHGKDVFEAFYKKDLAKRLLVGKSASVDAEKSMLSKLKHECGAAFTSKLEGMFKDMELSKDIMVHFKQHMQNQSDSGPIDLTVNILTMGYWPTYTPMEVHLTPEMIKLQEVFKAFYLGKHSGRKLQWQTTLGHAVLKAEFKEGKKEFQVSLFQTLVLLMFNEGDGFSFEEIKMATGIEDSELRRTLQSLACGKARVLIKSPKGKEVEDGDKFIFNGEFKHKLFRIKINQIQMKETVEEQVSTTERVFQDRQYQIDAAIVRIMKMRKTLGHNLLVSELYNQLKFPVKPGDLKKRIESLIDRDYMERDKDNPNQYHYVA
Chain of ROC1-CUL4A (Q13619 39-759): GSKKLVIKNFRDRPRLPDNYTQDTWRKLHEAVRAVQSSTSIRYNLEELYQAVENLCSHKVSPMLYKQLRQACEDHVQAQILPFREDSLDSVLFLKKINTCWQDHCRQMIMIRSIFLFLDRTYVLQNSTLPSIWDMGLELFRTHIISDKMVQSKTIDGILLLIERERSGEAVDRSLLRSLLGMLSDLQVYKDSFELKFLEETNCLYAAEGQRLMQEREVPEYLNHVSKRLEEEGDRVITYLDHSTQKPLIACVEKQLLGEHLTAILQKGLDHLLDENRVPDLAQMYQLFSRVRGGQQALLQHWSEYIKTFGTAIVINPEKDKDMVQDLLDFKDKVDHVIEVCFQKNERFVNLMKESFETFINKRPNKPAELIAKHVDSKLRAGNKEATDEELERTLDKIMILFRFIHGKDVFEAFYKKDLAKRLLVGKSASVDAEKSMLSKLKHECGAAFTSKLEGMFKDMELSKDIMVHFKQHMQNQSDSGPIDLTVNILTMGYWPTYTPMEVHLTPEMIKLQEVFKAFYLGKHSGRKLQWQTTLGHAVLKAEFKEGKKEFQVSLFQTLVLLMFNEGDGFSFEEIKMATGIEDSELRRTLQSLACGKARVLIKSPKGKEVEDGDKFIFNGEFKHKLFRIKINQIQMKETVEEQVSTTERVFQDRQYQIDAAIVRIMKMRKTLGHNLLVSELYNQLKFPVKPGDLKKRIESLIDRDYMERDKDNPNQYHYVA
Chain of ROC1-CUL4A (P62877 15-108 partner): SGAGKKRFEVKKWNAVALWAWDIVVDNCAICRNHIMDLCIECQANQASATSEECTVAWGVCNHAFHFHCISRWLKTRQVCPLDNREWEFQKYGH
Chain of E3 (CUL4) (Q13619 whole entry): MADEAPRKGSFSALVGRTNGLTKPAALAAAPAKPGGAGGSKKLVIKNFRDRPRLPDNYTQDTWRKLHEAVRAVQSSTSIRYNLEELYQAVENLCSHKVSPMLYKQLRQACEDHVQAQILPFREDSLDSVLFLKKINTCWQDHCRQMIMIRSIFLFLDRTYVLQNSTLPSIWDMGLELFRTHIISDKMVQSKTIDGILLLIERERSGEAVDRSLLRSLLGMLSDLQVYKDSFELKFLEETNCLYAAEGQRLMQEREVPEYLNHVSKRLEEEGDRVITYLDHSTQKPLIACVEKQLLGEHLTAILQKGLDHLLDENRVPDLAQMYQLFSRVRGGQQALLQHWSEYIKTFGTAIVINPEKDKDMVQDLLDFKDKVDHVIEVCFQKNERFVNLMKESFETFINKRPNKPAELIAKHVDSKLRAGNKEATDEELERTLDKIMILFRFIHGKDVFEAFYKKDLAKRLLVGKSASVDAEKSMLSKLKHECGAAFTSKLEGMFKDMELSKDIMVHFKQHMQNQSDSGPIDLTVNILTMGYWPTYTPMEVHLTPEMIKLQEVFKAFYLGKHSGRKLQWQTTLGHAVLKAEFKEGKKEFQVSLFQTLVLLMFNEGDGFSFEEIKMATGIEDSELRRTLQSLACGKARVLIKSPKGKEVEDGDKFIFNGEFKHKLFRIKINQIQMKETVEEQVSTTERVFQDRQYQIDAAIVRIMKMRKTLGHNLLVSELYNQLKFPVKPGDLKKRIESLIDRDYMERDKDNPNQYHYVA
Chain of E3 (CUL4) (P62877 whole entry partner): as the sequence (P62877 whole entry partner) above
Chain of ROC1-CUL1 (Q13616 whole entry): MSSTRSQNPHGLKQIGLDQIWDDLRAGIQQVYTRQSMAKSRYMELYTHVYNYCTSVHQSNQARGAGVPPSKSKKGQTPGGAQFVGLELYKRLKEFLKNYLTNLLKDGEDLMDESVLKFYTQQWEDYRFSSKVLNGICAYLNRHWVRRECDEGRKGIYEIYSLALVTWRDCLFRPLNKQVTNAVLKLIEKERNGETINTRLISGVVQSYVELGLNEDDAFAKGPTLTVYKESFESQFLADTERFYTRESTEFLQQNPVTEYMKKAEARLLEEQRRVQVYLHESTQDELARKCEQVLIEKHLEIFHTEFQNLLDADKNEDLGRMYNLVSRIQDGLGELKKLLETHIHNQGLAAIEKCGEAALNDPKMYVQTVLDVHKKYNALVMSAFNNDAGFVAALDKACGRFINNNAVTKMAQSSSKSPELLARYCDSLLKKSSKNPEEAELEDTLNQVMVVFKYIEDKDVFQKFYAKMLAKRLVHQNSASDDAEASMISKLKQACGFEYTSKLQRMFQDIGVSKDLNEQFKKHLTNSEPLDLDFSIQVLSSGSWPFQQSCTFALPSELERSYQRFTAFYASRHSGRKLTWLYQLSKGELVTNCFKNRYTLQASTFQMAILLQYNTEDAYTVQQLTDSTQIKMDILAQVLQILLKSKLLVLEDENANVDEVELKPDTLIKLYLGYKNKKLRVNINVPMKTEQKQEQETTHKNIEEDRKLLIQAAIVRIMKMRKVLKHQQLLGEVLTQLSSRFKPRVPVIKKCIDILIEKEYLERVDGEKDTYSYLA
Chain of ROC1-CUL1 (P62877 whole entry partner): as the sequence (P62877 whole entry partner) above

`O=c1c(-c2cnn(-c3ccccc3)c2)c(C(F)(F)F)oc2c(O)c(O)ccc12` [#33-11, 7,8-dihydroxy-3-(1-phenyl-1H-pyrazol-4-yl)-2-(trifluoromethyl)-4H-chromen-4-one]: in data set [1], the “effect on levels of CUL1-32P-Ub” value is reported as “little effects”. The “binding to ROC1-CUL4A CTD more effectively than ROC1-CUL1 CTD” value in data set [2] is around 20 fold. In [3], this compound had a pKd of 6.65. In addition, the “level of di-Ub product” value in data set [4] and in [5] was “remained almost unchanged” throughout. Also, the “E3 CRL4 Relative Inhibition” value in data set [6] was determined as 37%. Moreover, the necropsy findings entry in data set [7] (50 mg/kg) is on record as “no adverse effects”. Further, the body weight loss entry in data set [7] (50 mg/kg IP daily, 7 days) is on record as “no significant body weight loss”. In addition, in data set [8], the “Kinetic solubility, rating” value is recorded as “moderate solubility”.
For `O=c1c(-c2cnn(-c3ccc(Cl)cc3)c2)c(C(F)(F)F)oc2c(O)c(O)ccc12` [KH-4-43, 3-(1-(4-chlorophenyl)-1H-pyrazol-4-yl)-7,8-dihydroxy-2-(trifluoromethyl)-4H-chromen-4-one], the values for the pEC50 in data set [9], in data set [10] and in data set [11] were 5.00, 5.52 and around 5.70, respectively. Further, in data set [12], the “dose range inhibiting ubiquitination by CRL1/SCF” value is around 30 µM. The “Liver microsomes: t1/2” value in data set [13] (Human) and in data set [13] (Rat) was above 8.33 h in each case.

As usually defined, the pKd is −log10 of the Kd, conventionally taken in molar units. Broadly, the pEC50 is the negative decadic logarithm of the EC50, by convention in mol/L.
